In ChEMBL document CHEMBL1140340 (J Med Chem, 2005):

Key:
[1] = biological target: T1, Norepinephrine transporter (Rattus norvegicus, UniProt Q9WTR4); assay: Inhibition of rat brain Norepinephrine transporter as accumulation of [3H]NE; type: functional
[2] = biological target: T1, Norepinephrine transporter; assay: Inhibition of rat brain Norepinephrine transporter as accumulation of [3H]-NE; type: functional
[3] = biological target: T2, Sodium-dependent serotonin transporter (Rattus norvegicus, UniProt P31652); assay: Inhibition of rat brain Serotonin transporter uptake as [3H]5-HT accumulation
T2 sequence (P31652 whole entry): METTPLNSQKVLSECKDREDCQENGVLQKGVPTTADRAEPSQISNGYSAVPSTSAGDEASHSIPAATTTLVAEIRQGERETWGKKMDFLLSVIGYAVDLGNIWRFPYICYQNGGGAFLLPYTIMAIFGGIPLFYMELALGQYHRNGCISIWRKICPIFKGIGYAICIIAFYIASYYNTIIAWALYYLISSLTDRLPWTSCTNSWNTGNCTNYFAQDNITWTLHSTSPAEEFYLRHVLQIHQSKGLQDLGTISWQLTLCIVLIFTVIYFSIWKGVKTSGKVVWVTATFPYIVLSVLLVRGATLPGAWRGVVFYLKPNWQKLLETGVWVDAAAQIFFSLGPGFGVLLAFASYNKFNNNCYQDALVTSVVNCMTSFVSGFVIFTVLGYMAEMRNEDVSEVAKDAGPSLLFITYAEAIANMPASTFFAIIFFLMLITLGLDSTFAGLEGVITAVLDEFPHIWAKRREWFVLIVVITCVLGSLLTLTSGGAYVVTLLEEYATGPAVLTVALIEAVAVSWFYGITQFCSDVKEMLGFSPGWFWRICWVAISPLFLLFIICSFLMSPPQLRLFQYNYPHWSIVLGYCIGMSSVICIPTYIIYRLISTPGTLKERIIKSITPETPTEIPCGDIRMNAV

[4] = biological target: T3, Sodium-dependent dopamine transporter (Rattus norvegicus, UniProt P23977); assay: Inhibition of rat brain Dopamine transporter uptake as [3H]DA accumulation; type: functional
T3 sequence (P23977 whole entry): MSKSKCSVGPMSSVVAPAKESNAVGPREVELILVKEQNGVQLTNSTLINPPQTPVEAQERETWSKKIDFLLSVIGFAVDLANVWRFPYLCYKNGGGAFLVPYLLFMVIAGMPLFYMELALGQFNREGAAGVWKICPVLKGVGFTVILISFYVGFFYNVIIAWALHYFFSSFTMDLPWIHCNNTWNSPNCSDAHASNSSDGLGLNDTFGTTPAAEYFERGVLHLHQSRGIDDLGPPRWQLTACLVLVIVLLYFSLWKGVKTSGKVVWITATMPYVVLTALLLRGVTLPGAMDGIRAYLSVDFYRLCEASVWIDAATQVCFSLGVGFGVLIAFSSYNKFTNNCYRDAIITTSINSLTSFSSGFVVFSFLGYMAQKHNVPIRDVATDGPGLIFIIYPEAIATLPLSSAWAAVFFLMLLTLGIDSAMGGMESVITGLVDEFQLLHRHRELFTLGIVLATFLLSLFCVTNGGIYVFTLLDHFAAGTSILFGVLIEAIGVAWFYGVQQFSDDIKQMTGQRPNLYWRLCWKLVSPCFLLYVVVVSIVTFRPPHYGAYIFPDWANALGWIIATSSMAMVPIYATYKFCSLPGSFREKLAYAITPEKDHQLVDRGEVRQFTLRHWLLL

[5] = biological target: Monoamine transporters; serotonin & dopamine (Rattus norvegicus) (UniProt P31652+P23977); assay: Ratio between Dopamine transporter and Serotonin transporter uptake; type: protein assay
Sequence of Monoamine transporters; serotonin & dopamine (Rattus norvegicus) (P23977 whole entry, looked up): as the sequence (P23977 whole entry) above
Sequence of Monoamine transporters; serotonin & dopamine (Rattus norvegicus) (P31652 whole entry, looked up): as the sequence (P31652 whole entry) above

[6] = biological target: T2, Sodium-dependent serotonin transporter; assay: Inhibition of rat brain Serotonin transporter as accumulation of [3H]5-HT; type: functional
[7] = biological target: T3, Sodium-dependent dopamine transporter; assay: Inhibition of [3H]WIN-35428 binding to rat brain dopamine transporter
[8] = biological target: Monoamine transporters; Norepininephrine & dopamine (Rattus norvegicus) (UniProt P23977+Q9WTR4); assay: Ratio between Dopamine transporter and Norepinephrine transporter uptake; type: protein assay
[9] = biological target: Monoamine transporters; Norepinephrine & serotonin (Rattus norvegicus) (UniProt P31652+Q9WTR4); assay: Ratio between Serotonin transporter and Norepinephrine transporter uptake; type: protein assay
[10] = biological target: T3, Sodium-dependent dopamine transporter; assay: Inhibition of rat brain dopamine transporter as accumulation of [3H]DA; type: functional

T1 sequence (Q9WTR4 whole entry): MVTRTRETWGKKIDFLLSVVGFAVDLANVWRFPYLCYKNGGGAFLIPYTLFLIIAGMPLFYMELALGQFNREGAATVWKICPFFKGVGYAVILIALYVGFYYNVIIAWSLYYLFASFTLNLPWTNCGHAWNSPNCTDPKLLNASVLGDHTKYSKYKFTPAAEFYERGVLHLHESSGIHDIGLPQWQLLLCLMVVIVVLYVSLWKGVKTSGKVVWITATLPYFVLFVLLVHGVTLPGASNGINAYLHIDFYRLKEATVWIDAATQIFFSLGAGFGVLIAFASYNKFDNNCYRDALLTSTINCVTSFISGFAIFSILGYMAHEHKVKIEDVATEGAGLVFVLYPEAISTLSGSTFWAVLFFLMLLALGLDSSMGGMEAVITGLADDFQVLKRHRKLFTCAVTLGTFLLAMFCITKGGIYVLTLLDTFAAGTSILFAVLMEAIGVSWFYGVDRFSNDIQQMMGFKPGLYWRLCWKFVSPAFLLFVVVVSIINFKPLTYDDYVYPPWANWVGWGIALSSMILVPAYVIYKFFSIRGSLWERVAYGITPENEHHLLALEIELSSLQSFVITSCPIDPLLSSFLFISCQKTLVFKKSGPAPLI

Row | Structure (SMILES) | IC50 [1] | Ki [2] | IC50 [3] | IC50 [4] | Ratio [5] | Ki [6] | IC50 [7] | Ratio [8] | Ratio [9] | Ki [10]
1 | COc1cc(CN[C@@H]2CO[C@H](C(c3ccccc3)c3ccccc3)C[C@H]2O)cc(OC)c1 | 108 nM | 101 nM | 25.4 nM | 135 nM | 5.1 | 19.7 nM | 298 nM | 0.99 | 0.2 | 100 nM
2 | OC1COC(C(c2ccccc2)c2ccccc2)CC1NCc1ccccc1 (single isomer, unassigned) | 3220 nM | 2890 nM | 4420 nM | 962 nM | 0.18 | 3970 nM | 1250 nM | 0.25 | 1.4 | 716 nM
3 | O[C@@H]1CO[C@H](C(c2ccccc2)c2ccccc2)C[C@H]1NCc1ccccc1 | 336 nM | 296 nM | 10600 nM | 2610 nM | 0.2 | 9560 nM | 4640 nM | 6.6 | 32 | 1940 nM
4 | O[C@@H]1C[C@@H](C(c2ccccc2)c2ccccc2)OC[C@H]1NCc1ccccc1 |  |  | 862 nM | 600 nM |  | 707 nM |  |  |  | 446 nM
5 | COc1ccc(CN[C@@H]2CO[C@H](C(c3ccccc3)c3ccccc3)C[C@H]2O)cc1 |  | 15.8 nM |  |  |  |  |  |  |  | 
6 | COc1ccc(CN[C@@H]2CO[C@H](C(c3ccccc3)c3ccccc3)C[C@H]2O)c(OC)c1 | 115 nM | 95 nM | 24 nM | 710 nM | 25 | 20.8 nM | 1060 nM | 5.6 | 0.22 | 528 nM
7 | O[C@@H]1C[C@@H](C(c2ccccc2)c2ccccc2)OC[C@H]1NCc1ccc(F)cc1 | 13.3 nM | 12.2 nM | 676 nM | 169 nM | 0.21 | 607 nM | 308 nM | 10.2 | 50 | 125 nM
8 | COc1ccc(CNC2CC(C(c3ccccc3)c3ccccc3)OCC2O)cc1 (single isomer, unassigned) | 1840 nM | 1700 nM | 3810 nM | 2670 nM | 0.58 | 3420 nM | 3750 nM | 1.2 | 2 | 1980 nM
9 | O[C@@H]1C[C@@H](C(c2ccccc2)c2ccccc2)OC[C@H]1NCCc1ccc(F)cc1 | 439 nM | 406 nM | 3570 nM | 427 nM | 0.099 | 3210 nM | 1050 nM | 0.78 | 7.9 | 317 nM
10 | OC1CC(C(c2ccccc2)c2ccccc2)OCC1NCc1ccc(F)cc1 (single isomer, unassigned) | 1130 nM | 1050 nM | 5560 nM | 440 nM | 0.065 | 5000 nM | 1030 nM | 0.31 | 4.8 | 327 nM
11 | OC1CC(C(c2ccccc2)c2ccccc2)OCC1NCc1ccccc1 (single isomer, unassigned) |  |  | 6120 nM | 341 nM |  | 5500 nM | 596 nM |  |  | 253 nM
12 | COc1ccc(CNC2COC(C(c3ccccc3)c3ccccc3)CC2O)cc1 (single isomer, unassigned) |  | 412 nM |  |  |  |  |  |  |  | 
13 | COc1ccc(CN[C@@H]2C[C@@H](C(c3ccccc3)c3ccccc3)OC[C@H]2O)cc1 | 765 nM | 686 nM | 1070 nM | 822 nM | 0.77 | 793 nM | 771 nM | 0.89 | 1.2 | 611 nM
14 | OC1CC(C(c2ccccc2)c2ccccc2)OCC1NCCc1ccc(F)cc1 (single isomer, unassigned) | 77.3 nM | 71 nM | 2950 nM | 218 nM | 0.061 | 2650 nM | 443 nM | 2.3 | 37 | 162 nM
